Assay results: patent US20080107619A1, “Carbohydrate based cellulase inhibitors as feeding stimulants in termites” (University of Florida Research Foundation, Inc., priority 2006, published 2008)

Assays:
[1] = target: β-glucosidase; assay: In vitro β-glucosidase inhibition, pNPG assay (I50 determination); assay type: biochemical, R. flavipes; settings: foregut/salivary gland/midgut (endogenous) and hindgut (symbiotic) fractions, FIG. 4
Method: Gut dissections were carried out for cellulase distribution and inhibition studies. For dissections, termites were immobilized on ice, decapitated, and the entire digestive tract removed through a small incision made in the abdominal exoskeleton. For cellulase distribution studies, dissected guts were divided into three regions: (i) salivary gland+foregut, (ii) midgut and (iii) hindgut. For inhibition studies, guts were divided into two major components that included: (i) foregut, salivary gland and midgut, and (ii) hindgut. […]
(§1) Cellulase activity assays were adapted from Han et al. in “Characterization of a bifunctional cellulase and its structural gene,” J. Biol. Chem. 270 (1995) 26012-26019, with optimization for a 96-well microplate format. […] Color was allowed to develop on ice for 15 min before measuring absorbance at 540 nm relative to a glucose standard curve.
(§2) The hydrolysis product of both the pNPC and pNPG substrates is p-nitrophenol, which is yellow in color and permits for direct quantification of activity in a kinetic assay. pNPC and pNPG assays were initially incubated at 32° C. for 20 min before measuring the release of the product, p-nitrophenol, at 420 nm. The absorbance of reactions was read every 2 min for 1 hr and activity was determined based on rate of absorbance change. […]

[2] = target: T1, Cel5A enzyme (Salipaludibacillus agaradhaerens, UniProt O85465); settings: Varrott et al.; read-out: I50 value; cited from earlier work
T1 sequence (O85465 27-400): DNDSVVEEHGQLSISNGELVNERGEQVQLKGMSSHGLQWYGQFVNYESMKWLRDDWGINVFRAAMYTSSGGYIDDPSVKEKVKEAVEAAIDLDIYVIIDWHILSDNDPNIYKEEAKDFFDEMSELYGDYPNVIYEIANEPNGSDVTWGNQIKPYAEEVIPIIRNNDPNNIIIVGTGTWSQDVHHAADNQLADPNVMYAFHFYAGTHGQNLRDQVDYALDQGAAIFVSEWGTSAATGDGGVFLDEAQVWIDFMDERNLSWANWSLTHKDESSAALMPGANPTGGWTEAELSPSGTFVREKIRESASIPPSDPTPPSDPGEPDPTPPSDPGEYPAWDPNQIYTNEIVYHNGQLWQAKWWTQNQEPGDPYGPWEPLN

[3] = test system: exoglucanase; assay: Post-feeding inhibition of exoglucanase activity in whole-body homogenates; assay type: in vivo, R. flavipes; settings: after 24 days feeding at 5 mM and above
Method: (§3) Whole body homogenates were used for optimization and post-feeding inhibition studies. Here, 10-15 termite workers were homogenized in 1 to 1.5 ml ice-cold homogenization buffer with a Teflon-glass (Potter-Elvehjem) homogenizer powered by a motorized electric stirrer (Fisher Scientific). After homogenization, both gut region and whole-body preparations were centrifuged at 15,000× g and 4° C. for 15 min. The resulting supernatants from the different gut regions were used directly for subsequent enzyme assays. Supernatants from whole-body homogenates were passed through glass wool to remove excess lipids before proceeding with cellulase activity assays.
as §1
as §2, with “nm.” for “nm. The absorbance of reactions was read every 2 min for 1 hr and activity was determined based on rate of absorbance change.”

[4] = test system: β-glucosidase; assay: Post-feeding inhibition of β-glucosidase activity in whole-body homogenates; assay type: in vivo, R. flavipes; settings: after 24 days feeding at 25 mM and above
Method: as §3, §1
as §2, with “nm.” for “nm. The absorbance of reactions was read every 2 min for 1 hr and activity was determined based on rate of absorbance change.”

Row | Compound | I50 against β-glucosidase activity [1] | IC50 [2] | Exoglucanase activity, maximal reduction relative to controls [3] | β-glucosidase activity, maximal reduction relative to controls [4]
1 | fluoromethyl glucose [FMG] | virtually no inhibitory properties | – | – | –
2 | OC[C@@H]1[C@@H](O[C@@H]2O[C@H](CO)[C@@H](O)[C@H](O)[C@H]2O)[C@H](O)[C@@H](O)c2nccn21 [CBI, cellobioimidazole] | I50s in the nM-μM range | 88 µM | ~75% | ~90%
